Drawing on patent US12338220B2, “Antiviral pyrazolopiridinone compounds” (Novartis AG, priority 2019, dated 2025), this text covers EC50 and IC50 for 19 molecules.

Where two headings read alike, the source gives them in different places.

In one assay the test system is CMV. The assay is described as follows: microbe, parasite or virus in culture. In kind it is cell-based. The conditions noted are these: Human betaherpesvirus 5, 72 h, read-out: CMV-Luc Cellular EC50, NN-NHDF cells, MOI 1, 72 hrs.
For a further assay, the target named is HSV-polymerase (Human herpesvirus 1 (strain 17) (HHV-1) (Human herpes simplex virus 1), UniProt P04293). Briefly: biochemical.
In a further assay the target is CMV-polymerase (Human cytomegalovirus (strain AD169) (HHV-5) (Human herpesvirus 5), UniProt P08546). The assay is described as follows: biochemical.
The mark [1] stands for this setting: CMV-polymerase Biochemical IC50.
Where [2] appears, read: read-out: CMV-polymerase Biochemical IC50.

By EC50 is commonly meant the concentration needed to bring the measured effect to its halfway point. The term IC50 denotes the point on the concentration scale where inhibition reaches its midpoint. For `Cn1nc(C(=O)NCc2ccc(C#N)cc2)c2c1C(=O)N(CC1(S(=O)(=O)C(C)(C)COC(F)CO)CC1)CC2` (single isomer, unassigned) [Example 80, (R)- or (S)-N-(4-Cyanobenzyl)-6-((1-((1-(1-fluoro-2-hydroxyethoxy)-2-methylpropan-2-yl)sulfonyl)cyclopropyl)methyl)-1-methyl-7-oxo-4,5,6,7-tetrahydro-1H-pyrazolo[3,4-c]pyridine-3-carboxamide], the half-maximal effective concentration (EC50) with CMV was 36 nM. Moreover, the IC50 was 67 nM on HSV-polymerase and 6 nM against CMV-polymerase (setting [1]).

`CC(O)COCC(C)(C)S(=O)(=O)C1(CN2CCc3c(C(=O)NCc4ccc(C#N)cc4)nn(C)c3C2=O)CC1` (single isomer, unassigned) [Example 90, (R)- or (S)-N-(4-Cyanobenzyl)-6-((1-((1-(2-hydroxypropoxy)-2-methylpropan-2-yl)sulfonyl)cyclopropyl)methyl)-1-methyl-7-oxo-4,5,6,7-tetrahydro-1H-pyrazolo[3,4-c]pyridine-3-carboxamide]: the EC50 with CMV came to 58 nM. Moreover, the values for the IC50 on HSV-polymerase and against CMV-polymerase (setting [1]) were 97 nM and 7 nM, respectively.

Consider `CC1=NOC(C(C)(C)S(=O)(=O)C2(CN3CCc4c(C(=O)NCc5ccc(C#N)cc5)nn(C)c4C3=O)CC2)C1` (single isomer, unassigned) [Example 112, (R)- or (S)-N-(4-Cyanobenzyl)-1-methyl-6-((1-((2-(3-methyl-4,5-dihydroisoxazol-5-yl)propan-2-yl)sulfonyl)cyclopropyl)methyl)-7-oxo-4,5,6,7-tetrahydro-1H-pyrazolo[3,4-c]pyridine-3-carboxamide], for which the IC50 on HSV-polymerase is 89 nM; at CMV-polymerase (setting [2]), 2 nM.

In the case of `CC(O)CC(C)(C)S(=O)(=O)C1(CN2CCc3c(C(=O)NCc4ccc(C#N)cc4)nn(C)c3C2=O)CC1` (single isomer, unassigned) [Example 115, (R)- or (S)-N-(4-Cyanobenzyl)-6-((1-((4-hydroxy-2-methylpentan-2-yl)sulfonyl)cyclopropyl)methyl)-1-methyl-7-oxo-4,5,6,7-tetrahydro-1H-pyrazolo[3,4-c]pyridine-3-carboxamide], the 50% effective concentration (EC50) in the assay on CMV worked out at 59 nM. In addition, the figures for the IC50 against HSV-polymerase and against CMV-polymerase (setting [1]) were 71 nM and 3 nM, respectively.

Take `CC(O)CC(C)(C)S(=O)(=O)C1(CN2CCc3c(C(=O)NCc4ccc(C#N)cc4)nn(C)c3C2=O)CC1` (single isomer, unassigned) [Example 116, (R)- or (S)-N-(4-Cyanobenzyl)-6-((1-((4-hydroxy-2-methylpentan-2-yl)sulfonyl)cyclopropyl)methyl)-1-methyl-7-oxo-4,5,6,7-tetrahydro-1H-pyrazolo[3,4-c]pyridine-3-carboxamide]: the values for the IC50 against HSV-polymerase and against CMV-polymerase (setting [1]) were 48 nM and 2 nM, respectively.

In the case of `COCC(C)(CO)S(=O)(=O)C1(CN2CCc3c(C(=O)NCc4ccc(C#N)cc4)nn(C)c3C2=O)CC1` (single isomer, unassigned) [Example 181, (R)- or (S)-N-(4-Cyanobenzyl)-6-((1-((1-hydroxy-3-methoxy-2-methylpropan-2-yl)sulfonyl)cyclopropyl)methyl)-1-methyl-7-oxo-4,5,6,7-tetrahydro-1H-pyrazolo[3,4-c]pyridine-3-carboxamide], the 50% effective concentration (EC50) in the assay on CMV is 77 nM. For the same molecule, the IC50 was determined as 69 nM on HSV-polymerase and 4 nM on CMV-polymerase (setting [1]).

As for `COCC(C)(CO)S(=O)(=O)C1(CN2CCc3c(C(=O)NCc4ccc(C#N)cc4)nn(C)c3C2=O)CC1` (single isomer, unassigned) [Example 182, (R)- or (S)-N-(4-Cyanobenzyl)-6-((1-((1-hydroxy-3-methoxy-2-methylpropan-2-yl)sulfonyl)cyclopropyl)methyl)-1-methyl-7-oxo-4,5,6,7-tetrahydro-1H-pyrazolo[3,4-c]pyridine-3-carboxamide], the IC50 against HSV-polymerase was 46 nM; on CMV-polymerase (setting [1]) it was 2 nM.

`Cn1nc(C(=O)NCc2ccc(C#N)cc2)c2c1C(=O)N(CC1(S(=O)(=O)C3(C(O)CO)CC3)CC1)CC2` (single isomer, unassigned) [Example 194, (R)- or (S)-N-(4-Cyanobenzyl)-6-((1-((1-(1,2-dihydroxyethyl)cyclopropyl)sulfonyl)cyclopropyl)methyl)-1-methyl-7-oxo-4,5,6,7-tetrahydro-1H-pyrazolo[3,4-c]pyridine-3-carboxamide]: in the assay with CMV, the EC50 stood at 50 nM. For the same molecule, the results for the IC50 at HSV-polymerase and at CMV-polymerase (setting [1]) were 20 nM and 1 nM, respectively.

For the molecule `Cn1nc(C(=O)NCc2ccc(C#N)cc2)c2c1C(=O)N(CC1(S(=O)(=O)C(C)(C)C(O)C(C)(C)N)CC1)CC2` (single isomer, unassigned) [Example 211, (R)- or (S)-6-((1-((4-Amino-3-hydroxy-2,4-dimethylpentan-2-yl)sulfonyl)cyclopropyl)methyl)-N-(4-cyanobenzyl)-1-methyl-7-oxo-4,5,6,7-tetrahydro-1H-pyrazolo[3,4-c]pyridine-3-carboxamide], the IC50 at HSV-polymerase came to 77 nM; on CMV-polymerase (setting [1]) it was 9 nM.

On to `Cn1nc(C(=O)NCc2ccc(C#N)cc2)c2c1C(=O)N(CC1(S(=O)(=O)C(C)(C)C(O)C(C)(C)N)CC1)CC2` (single isomer, unassigned) [Example 212, (R)- or (S)-6-((1-((4-Amino-3-hydroxy-2,4-dimethylpentan-2-yl)sulfonyl)cyclopropyl)methyl)-N-(4-cyanobenzyl)-1-methyl-7-oxo-4,5,6,7-tetrahydro-1H-pyrazolo[3,4-c]pyridine-3-carboxamide], for which the IC50 at HSV-polymerase was determined as 39 nM; at CMV-polymerase (setting [1]), 3 nM.

Regarding `CC(O)Cn1nc(C(=O)NCc2ccc(C#N)cc2)c2c1C(=O)N(CC1(S(=O)(=O)C3CC3)CC1)CC2` (single isomer, unassigned) [Example 225, (R)- or (S)-N-(4-cyanobenzyl)-6-((1-(cyclopropylsulfonyl)cyclopropyl)methyl)-1-(2-hydroxypropyl)-7-oxo-4,5,6,7-tetrahydro-1H-pyrazolo[3,4-c]pyridine-3-carboxamide], the EC50 with CMV turned out to be 63 nM. The values for the IC50 at HSV-polymerase and against CMV-polymerase (setting [1]) were 90 nM and 4 nM, respectively.

For the molecule `CC(O)Cn1nc(C(=O)NCc2ccc(C#N)cc2)c2c1C(=O)N(CC1(S(=O)(=O)C3CC3)CC1)CC2` (single isomer, unassigned) [Example 226, (R)- or (S)-N-(4-cyanobenzyl)-6-((1-(cyclopropylsulfonyl)cyclopropyl)methyl)-1-(2-hydroxypropyl)-7-oxo-4,5,6,7-tetrahydro-1H-pyrazolo[3,4-c]pyridine-3-carboxamide], the IC50 against HSV-polymerase is 101 nM; against CMV-polymerase (setting [1]), 2 nM.

With `Cn1nc(C(=O)NCc2ccc(C#N)cc2)c2ccn(CC3(S(=O)(=O)C4CC4)CC3)c(=O)c21` [Example 1, N-(4-cyanobenzyl)-6-((1-(cyclopropylsulfonyl)cyclopropyl)methyl)-1-methyl-7-oxo-6,7-dihydro-1H-pyrazolo[3,4-c]pyridine-3-carboxamide], the EC50 with CMV is 124 nM. For the same molecule, the IC50 against HSV-polymerase came out at 269 nM; at CMV-polymerase (setting [2]), 10 nM.

As to `Cn1nc(C(=O)NCc2ccc(C#N)cc2)c2ccn(CC3(S(C)(=O)=O)CC3)c(=O)c21` [Example 2, N-(4-Cyanobenzyl)-1-methyl-6-((1-(methylsulfonyl)cyclopropyl)methyl)-7-oxo-6,7-dihydro-1H-pyrazolo[3,4-c]pyridine-3-carboxamide], the EC50 in the assay with CMV was 536 nM. Further, the IC50 at HSV-polymerase is 1880 nM; at CMV-polymerase (setting [2]) it was 27 nM.

In the case of `Cn1nc(C(=O)NCc2ccc(Cl)nc2)c2c1C(=O)N(CC1(S(=O)(=O)C3CC3)CC1)CC2` [Example 7, N-((6-Chloropyridin-3-yl)methyl)-6-((1-(cyclopropylsulfonyl)cyclopropyl)methyl)-1-methyl-7-oxo-4,5,6,7-tetrahydro-1H-pyrazolo[3,4-c]pyridine-3-carboxamide], the EC50 in the assay on CMV is 534 nM. Also, the values for the IC50 against HSV-polymerase and on CMV-polymerase (setting [1]) were 861 nM and 56 nM, respectively.

As for `Cn1nc(C2=NO[C@@H](c3ccc(C#N)cc3)C2)c2c1C(=O)N(CC1(S(=O)(=O)C3CC3)CC1)CC2` [Example 32, (R)-4-(3-(6-((1-(Cyclopropylsulfonyl)cyclopropyl)methyl)-1-methyl-7-oxo-4,5,6,7-tetrahydro-1H-pyrazolo[3,4-c]pyridin-3-yl)-4,5-dihydroisoxazol-5-yl)benzonitrile], in the assay on CMV, the EC50 is 41 nM. The IC50 was 161 nM at HSV-polymerase and 3 nM at CMV-polymerase (setting [1]).

With `Cn1nc(C2=NO[C@H](c3ccc(C#N)cc3)C2)c2c1C(=O)N(CC1(S(=O)(=O)C3CC3)CC1)CC2` [Example 33, (S)-4-(3-(6-((1-(cyclopropylsulfonyl)cyclopropyl)methyl)-1-methyl-7-oxo-4,5,6,7-tetrahydro-1H-pyrazolo[3,4-c]pyridin-3-yl)-4,5-dihydroisoxazol-5-yl)benzonitrile], the EC50 with CMV turned out to be 9940 nM. Besides, the IC50 on HSV-polymerase was above 25000 nM; on CMV-polymerase (setting [1]) it was 1190 nM.

For the molecule `Cn1nc(C(=O)NCc2ccc(C#N)cc2)c2c1C(=O)N(CC1(S(=O)(=O)C(F)F)CC1)CC2` [Example 38, N-(4-Cyanobenzyl)-6-((1-((difluoromethyl)sulfonyl)cyclopropyl)methyl)-1-methyl-7-oxo-4,5,6,7-tetrahydro-1H-pyrazolo[3,4-c]pyridine-3-carboxamide], in the assay on CMV, the EC50 was 607 nM. For the same molecule, the figures for the IC50 against HSV-polymerase and at CMV-polymerase (setting [2]) were 784 nM and 14 nM, respectively.

On to `[2H]C([2H])(O)C(C)(C)S(=O)(=O)C1(CN2CCc3c(C(=O)NCc4ccc(C#N)cc4)nn(C)c3C2=O)CC1` [Example 56, N-(4-Cyanobenzyl)-6-((1-((1-hydroxy-2-methylpropan-2-yl-1,1-d2)sulfonyl)cyclopropyl)methyl)-1-methyl-7-oxo-4,5,6,7-tetrahydro-1H-pyrazolo[3,4-c]pyridine-3-carboxamide], for which the EC50 in the assay on CMV is 21 nM. Further, the IC50 on HSV-polymerase came out at 17 nM; on CMV-polymerase (setting [1]) it was 1 nM.
